According to publication PMC7370299, “Inhibition of Ovarian Cancer Cell Spheroid Formation by Synthetic Peptides Derived from Nectin-4” (International Journal of Molecular Sciences, 2020):

Tests used:
[1] = test system: NIH:OVCAR5 cells; conditions: 150 µg/mL peptide N4-P10 or 2 µg/mL puromycin, 250 nM Cytotox Green, 72 h, quadruplicate
Protocol: As a positive control for cytotoxicity, 2 µg/mL puromycin was used.

[2] = test system: NIH:OVCAR5 cells; experiment: Real-time spheroid formation, round-bottom ultra-low attachment plates, IncuCyte Zoom time-lapse, CellProfiler area; format: cell-based, human; conditions: for effect on spheroid formation (spheroid size, time-lapse): 96-well round-bottom ultra-low attachment plates, IncuCyte Zoom, first 24 h, DMSO control; for inhibition of spheroid formation at 18 µg/mL: peptide 18 µg/mL; for spheroid contraction / compact spheroid formation, average spheroid area over time: quadruplicate; for cell-cell adhesion at early time points of spheroid formation: before ~6 h, time-lapse imaging
Protocol: (§1) Confluent monolayers of ovarian cancer cell lines (NIH:OVCAR5, N4-KD-VB9, or CAOV3) were detached from the tissue culture flasks using 0.05% Trypsin (ThermoFisher Scientific, Waltham, MA, USA) and resuspended at a concentration of 1.0 × 10^5 cells/mL in complete media. Each well of a 96-well round-bottom ultra-low attachment plate (Corning, Corning NY, USA) was seeded with 50 ul of the resulting suspension. In most cases, the experiments were conducted with eight technical replicates at each condition. The plates were then placed in the gantry of the IncuCyte® Zoom (Sartorius, Ann Arbor, MI, USA) live cell analysis system and incubated at 37 °C in 5% CO2 for 24–72 h, as indicated. Photographs were taken at ~15 min increments for a total of no less than 48 h for the NIH:OVCAR5 cell lines or up to 72 h for the CAOV3 cell line. The initial photographs (t = 0) were taken 10–25 min after the cells were plated, at which time the cells had gravitated to the bottom of the well and were initiating the cell–cell attachments. The resulting footage was analyzed to determine the change in the area of the spheroid aggregates over time. The images were binarized to black and white, and the sum of the area of the small aggregates (black objects) in pixels was determined via the CellProfiler^TM workflow described below. Each image was normalized to the same dimensions, so that the areas could be compared.
Experiments were then repeated using round-bottom ultra-low attachment plates in which the cells were added to the wells containing the peptides at a final concentration of 150 µg/mL. The plates were placed in the IncuCyte® Zoom instrument for 24-48 h of live cell imaging, as described above. Experiments with the peptides selected for further study were performed in triplicate, with 8–16 technical replicates at each treatment condition.
NIH:OVCAR5 cells were added to wells containing from 9 to 150 µg/mL of peptide N4-P10 or peptide N4-P10S, or DMSO control, and then the formation of spheroids was monitored via the IncuCyte® Zoom instrument. The resulting footage was analyzed with the CellProfiler^TM pipeline described below.
A simple four-step CellProfiler™ (open source, Broad Institute, www.cellprofiler.org) pipeline was used to delineate the biologically relevant image contents and to quantify the area of spheroids over time. As part of the CellProfiler™ workflow, cellular edges were enhanced using the Sobel method, the images were converted to binary via Otsu method thresholding, and the area of occupied pixels as a function of overall image size was recorded. The resulting values were exported for analysis and visualization in the R statistical programming language. The values were averaged and the mean with the standard error of the mean (SEM) was determined and graphed. Experiments were routinely performed with eight replicates for each condition, and repeated a minimum of two times on separate days. Since many photographs were taken during the course of each experiment (approximately every 15 min) and the SEM was very small, it is difficult to see the small error bars in the graphs. For this reason, the values for each experimental SEM were included in the figure legends.

[3] = test system: recombinant Nectin-1; conditions: ovarian cancer cell adhesion to recombinant Nectin-1, short-term binding assay, previous study ref 15; cited from earlier work
Source text: In our previous study, peptides N4-P10 and N4-P22 both inhibited cell adhesion by approximately 50%; however, the inhibition of spheroid formation by these two peptides was more disparate, with peptide N4-P10 almost completely inhibiting spheroid formation. In contrast, ...

[4] = test system: CAOV3 cells; experiment: Real-time spheroid formation, round-bottom ultra-low attachment plates, IncuCyte Zoom time-lapse, CellProfiler area; format: cell-based, human; conditions: peptide 150 µg/mL; for effect on spheroid formation of CAOV3 cells: round-bottom ultra-low attachment plates, 72 h, quadruplicate, DMSO control
Protocol: as §1
A simple four-step CellProfiler™ (open source, Broad Institute, www.cellprofiler.org) pipeline was used to delineate the biologically relevant image contents and to quantify the area of spheroids over time. As part of the CellProfiler™ workflow, cellular edges were enhanced using the Sobel method, the images were converted to binary via Otsu method thresholding, and the area of occupied pixels as a function of overall image size was recorded. The resulting values were exported for analysis and visualization in the R statistical programming language. The values were averaged and the mean with the standard error of the mean (SEM) was determined and graphed. […]

[5] = test system: NIH:OVCAR5 cells; experiment: Initial screening of Nectin-4 peptides for spheroid formation, flat-bottom ultra-low attachment plates, manual photographs; format: cell-based, human; conditions: peptide 150 µg/mL, 96-well flat-bottom ultra-low attachment plates, photographed at 24 and 48 h, 8 technical replicates, data not shown
Protocol: Twenty-one peptides of 14 amino acids in length encompassing the extracellular domain of Nectin-4 (Figure 2 and Table 1) were synthesized as previously described. The peptides were initially screened at a concentration of 150 µg/mL in 96-well flat-bottom ultra-low attachment plates to identify the section(s) of Nectin-4 that are active in ovarian cancer cell aggregation and spheroid formation. NIH:OVCAR5 cells and peptides were seeded into the plates and manually photographed at 24 and 48 h time points. […] However, the cells treated with the other 18 peptides produced spheroids that appeared to be similar in size to the untreated control cells.
For the initial screening of the twenty-one Nectin-4 peptides, 50 ul of the peptides at 300 µg/mL (for a final working concentration of 150 µg/mL peptide per well) in complete media were added to 96-well flat-bottom ultra-low attachment plates (Corning, Corning, NY, USA). DMSO was used as a negative control. Fifty microliters of NIH:OVCAR5 cells at a concentration of 1.0 × 10^5 cells/mL in complete media were added to each well. The plates were then incubated at 37 °C in 5% CO2 for 48 h, with photographs taken manually at 24 and 48 h on a Nikon® TE200 microscope. A single screening experiment was conducted with 8 technical replicates at each condition to determine which peptides had the most significant effect on spheroid formation.

[6] = peptide 150 µg/mL, 24 h, versus DMSO control

| Compound | cytotoxic effect (cell death, integrated fluorescence intensity) [1] | effect on spheroid formation (spheroid size, time-lapse) ([2]; peptide 150 µg/mL) | inhibition of cell adhesion to Nectin-1 [3] | inhibition of spheroid formation at 18 µg/mL ([2]; 24 h, versus DMSO control) | spheroid contraction / compact spheroid formation, average spheroid area over time [2, 6] | cell-cell adhesion at early time points of spheroid formation ([2]; peptide 150 µg/mL) | effect on spheroid formation of CAOV3 cells [4] | effect on formation of spheroids (initial screen) [5] | other results |
| --- | --- | --- | --- | --- | --- | --- | --- | --- | --- |
| COc1ccc(C[C@H](N)C(=O)N[C@H]2[C@@H](O)[C@H](n3cnc4c(N(C)C)ncnc43)O[C@@H]2CO)cc1 [puromycin, reference compound] | essentially all died within 24 h | – | – | – | – | – | – | – | – |
| EVKGTTSSRSFKHS [N4-P14, Nectin-4 extracellular domain peptide, AA 186-199] | – | no effect on spheroid formation | – | – | – | – | – | – | – |
| QARLRLRVLVPPLP [N4-P10, Nectin-4 extracellular domain peptide, AA 138-151] | negligible | most dramatic effect on spheroid formation | approximately 50% | marginal effect of inhibiting spheroid formation | did not form compact spheroids | appeared to inhibit cell–cell adhesion | inhibited the spheroid formation of CAOV3 cells | significantly impeded the formation of spheroids | inhibition of spheroid formation at 37.5 to 150 µg/mL ([2]; peptide 37.5 to 150 µg/mL, 24 h): almost complete inhibition of spheroid formation; size / packing of CAOV3 multicellular aggregates ([4]; after 72 h of incubation, CellProfiler area): not as tightly packed as the spheroids that were formed in the presence of peptide N4-P10S or the DMSO control |
| RPVQLALPRLVRPL [N4-P10S, scrambled version of peptide N4-P10 used as a control peptide, reference compound] | – | – | – | no effect compared to the DMSO control | visually and quantitatively similar to that of the untreated controls | – | formed aggregates over 24 h that contracted into more compact spheroids after 72 h | – | change in formation of spheroids at any concentration ([2]; peptide 9-150 µg/mL, 24 h, versus DMSO control): no quantifiable change in the formation of spheroids compared with the control |
| SGKQVDLVSASV [N4-P27, Nectin-4 peptide, AA 339-350, adjacent to membrane] | – | significant impact on the formation of spheroids | did not inhibit ovarian cancer cell adhesion to recombinant Nectin-1 | – | – | – | – | significantly impeded the formation of spheroids | inhibition of spheroid formation compared to the control ([2]; peptide 150 µg/mL, spheroid area at 24 h): almost forty percent |
| WTRLDGPLPSGVRV [N4-P22, Nectin-4 extracellular domain peptide, AA 282-295] | – | more modest inhibition of spheroid formation | approximately 50% | – | – | appeared to inhibit cell–cell adhesion | – | significantly impeded the formation of spheroids | – |
